Measurements reported in US8138168B1 (Takeda Pharmaceutical Company Limited, priority 2007, dated 2012).

molecular target: T1, Recombinant human renin (Homo sapiens, UniProt P00797); assay: In vitro enzymatic activity assay of renin inhibitors (fluorogenic peptide substrate); format: biochemical; settings: isomers separated by preparative SFC; more or less active isomer as renin inhibitor
T1 construct: isolate the active form (residues 67-406); made in house; host or cells: FreeStyle 293-F cells (transient expression of pcDNA3.1(+)/hREN)
T1 sequence (P00797 67-406): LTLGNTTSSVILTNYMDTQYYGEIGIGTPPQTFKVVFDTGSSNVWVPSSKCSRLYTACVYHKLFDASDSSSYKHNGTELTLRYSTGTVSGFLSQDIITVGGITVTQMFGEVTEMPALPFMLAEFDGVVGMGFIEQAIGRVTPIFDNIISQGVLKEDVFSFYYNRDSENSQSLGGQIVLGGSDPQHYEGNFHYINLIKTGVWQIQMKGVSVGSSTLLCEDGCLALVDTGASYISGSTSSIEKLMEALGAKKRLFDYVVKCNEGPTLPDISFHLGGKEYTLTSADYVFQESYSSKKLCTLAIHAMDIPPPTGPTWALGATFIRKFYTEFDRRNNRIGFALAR
Outline: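 Enzyme: recombinant human renin, 3 nM final, 10 min compound pre-incubation at 37 °C; buffer 50 mM Hepes pH 7.4 with 0.1 mg/mL BSA or extra 2% BSA; 5% DMSO.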

Eutomer / distomer designation of the separated stereoisomers | Compound
Eutomer | Cc1nc2ccccc2n1[C@H]1CCCN(C(=O)C[C@H](N)Cc2ccc3ccccc3c2)C1 [Compound 244, (R)-3-amino-1-((S)-3-(2-methyl-1H-benzo[d]imidazol-1-yl)piperidin-1-yl)-4-(naphthalen-2-yl)butan-1-one]

same assay, conditions: read-out: IC50 of Exemplified Compounds Against Renin

Compound | IC50
N[C@@H](CC(=O)N1CCCC(c2nc3ccccc3[nH]2)C1)c1ccc([N+](=O)[O-])cc1 (stereo partly drawn) [Compound 33, (3S)-1-(3-(1H-benzo[d]imidazol-2-yl)piperidin-1-yl)-3-amino-3-(4-nitrophenyl)propan-1-one] | > 1000 nM
CCOC(=O)CCNC(=O)N1CCCC(c2nc3ccccc3[nH]2)C1 (stereo not shown) [Compound 14, ethyl 3-(3-(1H-benzo[d]imidazol-2-yl)piperidine-1-carboxamido)propanoate] | > 1000 nM
COCCCn1c([C@@H]2CCCN(C(=O)C[C@H](N)Cc3ccc(-c4ccc5oc(N)nc5c4)cc3)C2)nc2c(F)cccc21 [Compound 463, (R)-3-amino-4-(4-(2-aminobenzo[d]oxazol-5-yl)phenyl)-1-((R)-3-(4-fluoro-1-(3-methoxypropyl)-1H-benzo[d]imidazol-2-yl)piperidin-1-yl)butan-1-one] | < 100 nM
COCCCn1c([C@@H]2CCCN(C(=O)[C@@H]3CN(S(=O)(=O)c4ccc5ccccc5c4)C[C@H]3N)C2)nc2ccccc21 [Compound 341, ((3R,4S)-4-amino-1-(naphthalen-2-ylsulfonyl)pyrrolidin-3-yl)((R)-3-(1-(3-methoxypropyl)-1H-benzo[d]imidazol-2-yl)piperidin-1-yl)methanone] | 100 to 1000 nM
COCCCn1c([C@@H]2CCCN(C(=O)[C@@H]3CN(C(=O)N4CCOCC4)C[C@H]3N)C2)nc2ccccc21 [Compound 423, ((3R,4S)-4-amino-1-(morpholine-4-carbonyl)pyrrolidin-3-yl)((R)-3-(1-(3-methoxypropyl)-1H-benzo[d]imidazol-2-yl)piperidin-1-yl)methanone] | > 1000 nM
S=C(Nc1cccc2nsnc12)N1CCCC(c2nc3ccccc3[nH]2)C1 (stereo not shown) [Compound 18, N-(benzo[c][1,2,5]thiadiazol-4-yl)-3-(1H-benzo[d]imidazol-2-yl)piperidine-1-carboxthioamide] | > 1000 nM
Cc1nc2ccccc2n1[C@H]1CCCN(C(=O)C[C@H](N)Cc2ccc3ccccc3c2)C1 [Compound 244, (R)-3-amino-1-((S)-3-(2-methyl-1H-benzo[d]imidazol-1-yl)piperidin-1-yl)-4-(naphthalen-2-yl)butan-1-one] | > 1000 nM
COC(=O)[C@H](CC(C)C)NC(=O)N1CCCC(c2nc3ccccc3[nH]2)C1 (stereo partly drawn) [Compound 19, (2S)-methyl 2-(3-(1H-benzo[d]imidazol-2-yl)piperidine-1-carboxamido)-4-methylpentanoate] | > 1000 nM
COCCCn1c([C@@H]2CCCN(C(=O)[C@@H]3CN(S(=O)(=O)c4cc(Cl)ccc4OC)C[C@H]3N)C2)nc2ccccc21 [Compound 412, ((3R,4S)-4-amino-1-(5-chloro-2-methoxyphenylsulfonyl)pyrrolidin-3-yl)((R)-3-(1-(3-methoxypropyl)-1H-benzo[d]imidazol-2-yl)piperidin-1-yl)methanone] | > 1000 nM
COCCCn1c([C@@H]2CCCN(C(=O)C[C@H](N)Cc3ccc(-c4cnc(N)nc4)cc3)C2)nc2c(F)cccc21 [Compound 456, (R)-3-amino-4-(4-(2-aminopyrimidin-5-yl)phenyl)-1-((R)-3-(4-fluoro-1-(3-methoxypropyl)-1H-benzo[d]imidazol-2-yl)piperidin-1-yl)butan-1-one] | < 100 nM
COC(=O)[C@@H](Cc1ccccc1)NC(=O)N1CCCC(c2nc3ccccc3[nH]2)C1 (stereo partly drawn) [Compound 13, (2R)-methyl 2-(3-(1H-benzo[d]imidazol-2-yl)piperidine-1-carboxamido)-3-phenylpropanoate] | > 1000 nM
COCCCn1c([C@@H]2CCCN(C(=O)[C@@H]3CN(S(=O)(=O)c4cccc(Oc5ccccc5)c4)C[C@H]3N)C2)nc2ccccc21 [Compound 368, ((3R,4S)-4-amino-1-(3-phenoxyphenylsulfonyl)pyrrolidin-3-y1)((R)-3-(1-(3-methoxypropyl)-1H-benzo[d]imidazol-2-yl)piperidin-1-yl)methanone] | 100 to 1000 nM

Other lines, results leading:

IC50 | Compound
< 100 nM | COCCCn1c([C@@H]2CCCN(C(=O)C[C@H](N)Cc3ccc(-c4ccc(C(=O)NCC(C)(C)O)cc4)cc3)C2)nc2ccccc21 [Compound 188, 4′-((R)-2-amino-4-((R)-3-(1-(3-methoxypropyl)-1H-benzo[d]imidazol-2-yl)piperidin-1-yl)-4-oxobutyl)-N-(2-hydroxy-2-methylpropyl)biphenyl-4-carboxamide]
< 100 nM | COCCCn1c([C@@H]2CCCN(C(=O)C[C@H](N)CNC(=O)Nc3ccc(OC)cc3)C2)nc2ccccc21 [Compound 253, 1-((S)-2-amino-4-((R)-3-(1-(3-methoxypropyl)-1H-benzo[d]imidazol-2-yl)piperidin-1-yl)-4-oxobutyl)-3-(4-methoxyphenyl)urea]
> 1000 nM | COCCCn1c([C@@H]2CCCN(C(=O)C[C@@H](N)COc3cccc(OC)c3)C2)nc2ccccc21 [Compound 433, (R)-3-amino-4-(3-methoxyphenoxy)-1-((R)-3-(1-(3-methoxypropyl)-1H-benzo[d]imidazol-2-yl)piperidin-1-yl)butan-l-one]
< 100 nM | COCCCn1c([C@@H]2CCCN(C(=O)C[C@H](N)CNC(=O)c3ccc(-c4ccccc4F)o3)C2)nc2ccccc21 [Compound 260, N-((S)-2-amino-4-((R)-3-(1-(3-methoxypropyl)-1H-benzo[d]imidazol-2-yl)piperidin-1-yl)-4-oxobutyl)-5-(2-fluorophenyl)furan-2-carboxamide]
< 100 nM | COCCCn1c([C@@H]2CCCN(C(=O)C[C@H](N)Cc3ccc(-c4cccc(OC)c4)cc3)C2)nc2ccccc21 [Compound 158, (R)-3-Amino-4-(3′-methoxybiphenyl-4-yl)-1-((R)-3-(1-(3-methoxypropyl)-1H-benzo[d]imidazol-2-yl)piperidin-1-yl)butan-1-one]
< 100 nM | COCCCn1c([C@@H]2CCCN(C(=O)[C@@H]3CN(S(=O)(=O)c4cccc(NC(C)=O)c4)C[C@H]3N)C2)nc2ccccc21 [Compound 429, N-(3-((3S,4R)-3-amino-4-((R)-3-(1-(3-methoxypropyl)-1H-benzo[d]imidazol-2-yl)piperidine-1-carbonyl)pyrrolidin-1-ylsulfonyl)phenyl)acetamide]
> 1000 nM | COCCCn1c([C@@H]2CCCN(C(=O)C[C@H](N)CNC(=O)N3CCCC3)C2)nc2ccccc21 [Compound 334, N-((S)-2-amino-4-((R)-3-(1-(3-methoxypropyl)-1H-benzo[d]imidazol-2-yl)piperidin-1-yl)-4-oxobutyl)pyrrolidine-1-carboxamide]
> 1000 nM | COCCCn1c(C2CCCN(C(=O)C[C@H](N)Cc3ccc4ccccc4c3)C2)nc2ccc(Cl)nc21 (stereo partly drawn) [Compound 102, (R)-3-amino-1-(3-(5-chloro-3-(3-methoxypropyl)-3H-imidazo[4,5-b]pyridin-2-yl)piperidin-1-yl)-4-(naphthalen-2-yl)butan-1-one]
100 to 1000 nM | COCCCn1c([C@@H]2CCCN(C(=O)C[C@H](N)Cc3ccc4ccccc4c3)C2)nc2ccc(OC)nc21 [Compound 503, (3R)-3-amino-1-(3-(5-methoxy-3-(3-methoxypropyl)-3H-imidazo[4,5-b]pyridin-2-yl)piperidin-1-yl)-4-(naphthalen-2-yl)butan-1-one]
< 100 nM | COCCCn1c([C@@H]2CCCN(C(=O)C[C@H](N)Cc3ccc(-c4csc(C(C)C)n4)cc3)C2)nc2ccccc21 [Compound 202, (R)-3-amino-4-(4-(2-isopropylthiazol-4-yl)phenyl)-1-((R)-3-(1-(3-methoxypropyl)-1H-benzo[d]imidazol-2-yl)piperidin-1-yl)butan-1-one]
100 to 1000 nM | CC(=O)Nc1ccc(-c2ccc(C[C@@H](N)CC(=O)N3CCC[C@@H](c4nc5ccccc5n4CCC(N)=O)C3)cc2)cc1 [Compound 486, 3-(2-((R)-1-((R)-4-(4′-acetamidobiphenyl-4-yl)-3-aminobutanoyl)piperidin-3-yl)-1H-benzo[d]imidazol-1-yl)propanamide]
100 to 1000 nM | COCCCn1c([C@@H]2CCCN(C(=O)C[C@H](N)Cc3ccc(-n4ccc(=O)n(C)c4=O)cc3)C2)nc2ccccc21 [Compound 210, 1-(4-((R)-2-amino-4-((R)-3-(1-(3-methoxypropyl)-1H-benzo[d]imidazol-2-yl)piperidin-1-yl)-4-oxobutyl)phenyl)-3-methylpyrimidine-2,4(1H,3H)-dione]
100 to 1000 nM | COCCCn1c([C@@H]2CCCN(C(=O)[C@H](O)[C@H](N)c3ccccc3)C2)nc2ccccc21 [Compound 92, (2R,3R)-3-amino-2-hydroxy-1-((R)-3-(1-(3-methoxypropyl)-1H-benzo[d]imidazol-2-yl)piperidin-1-yl)-3-phenylpropan-1-one]
> 1000 nM | COCCCn1c([C@@H]2CCCN(C(=O)C[C@H](N)CNC(=O)Nc3ccccc3C(=O)OC)C2)nc2ccccc21 [Compound 329, methyl 2-(3-((S)-2-amino-4-((R)-3-(1-(3-methoxypropyl)-1H-benzo[d]imidazol-2-yl)piperidin-1-yl)-4-oxobutyl)ureido)benzoate]
< 100 nM | COCCCn1c([C@@H]2CCCN(C(=O)C[C@H](N)CNC(=O)Nc3ccc4c(c3)OCCO4)C2)nc2ccccc21 [Compound 258, 1-((S)-2-amino-4-((R)-3-(1-(3-methoxypropyl)-1H-benzo[d]imidazol-2-yl)piperidin-1-yl)-4-oxobutyl)-3-(2,3-dihydrobenzo[b][1,4]dioxin-6-yl)urea]
